Columns and labels:
[1] = system: cold allodynia induced by oxaliplatin; assay: Cold allodynia induced by oxaliplatin, drug on fourth day after oxaliplatin (acetone test); format: in vivo, mouse; conditions: 10 mg/kg, single oral administration, fourth day after oxaliplatin
Experimental: Oxaliplatin was dissolved in 5% glucose-containing saline and intraperitoneally administered at a dose of 2 mg/kg. A drug was administered on the fourth day after oxaliplatin administration. Male ddY mice (6 to 12 weeks old) were used. The axis of ordinates is the duration of the behavior of licking and paw waving after the application of an acetone drop (10 L) to the footpad of a hind paw.

[2] = Non Patent Literature 4; cited from earlier work
[3] = system: cold allodynia induced by oxaliplatin; assay: Onset of cold allodynia induced by oxaliplatin, drug given around oxaliplatin administration; format: in vivo, mouse; conditions: 10 mg/kg oral, 30 minutes before oxaliplatin or 3 administrations
Experimental: Oxaliplatin was dissolved in 5% glucose-containing saline and intraperitoneally administered at a dose of 2 mg/kg. Drug administration (oral administration) was performed 30 minutes before oxaliplatin administration (FIG. 7A); or 3 times: 30 minutes before oxaliplatin administration, 2.5 hours after the administration, and 5.5 hours after the administration (FIG. 7B). Male ddY mice (6 to 12 weeks old) were used. The axis of ordinates is the duration of the behavior of licking and paw waving after the application of an acetone drop (10 μL) to the footpad of a hind paw.

[4] = system: mechanical allodynia induced by spinal nerve injury; assay: Spinal nerve ligation (SNL) model, repeated intraperitoneal administration, mechanical allodynia; format: in vivo, mouse
Experimental: (§1) Male ddY mice (6 to 12 weeks old) were used, and the threshold to a mechanical stimulus was evaluated by the vonFrey test. Specifically, the 50% withdrawal reflex threshold (Threshold) was calculated in accordance with the method of Chaplan et al. (Chaplan et al., J. Neurosci. Meth. 53, 55-63, 1994). Each compound was dissolved in 99.7% DMSO, and then the resulting solution was diluted with an artificial cerebrospinal fluid for preparation (final concentration of DMSO was 0.2%).
Spinal nerve ligation (SNL) models in which the fourth lumbar cord spinal nerves of male ddY (6 to 12 weeks old) were ligated with silk thread were used. A solvent (VEH: 10% DMSO-containing saline). PA-8, the compound 2j or the compound 20 was intraperitoneally administered (30 mg/kg) 5 to 10 minutes before the ligation, and once a day for 7 days thereafter. The method of causing a mechanical stimulus is the same as that of Example 5, and data from the first day after the ligation (D1) are data 1 hour after the administration of VEH or the drugs.

[5] = system: mechanical allodynia induced by spinal nerve injury; assay: Spinal nerve ligation (SNL) model, i.t. administration on 14th day, mechanical allodynia; format: in vivo, mouse; conditions: 100 pmol i.t. on 14th day after operation
Experimental: as §1
Spinal nerve ligation (SNL) models in which the fourth lumbar cord spinal nerves of male ddY (6 to 12 weeks old) were ligated with silk thread were used. The i.t. administration of a solvent (VEH: 10% DMSO-containing saline), PA-8, the compound 2j or the compound 2o (FIG. 9A), or PA-9 or the compound 3d (FIG. 9B) was performed on the 14th day after the operation. The method of causing a mechanical stimulus is the same as that of Example 5, and data were acquired for 24 hours after i.t. administration over time.

[6] = system: mechanical allodynia induced by PACAP intrathecal administration; assay: Mechanical allodynia induced by PACAP intrathecal administration (von Frey test); format: in vivo, mouse; conditions: 10 or 100 pmol, simultaneous i.t.; FIGS. 5A and B
Experimental: When single i.t. administration of PACAP (100 pmol/5 L) to mouse was performed, mechanical stimulus sensitive phenomenon (mechanical allodynia) occurred over a long period of time (for at least three months after the administration) (Non Patent Literature 1). […] The mechanical sensitive phenomenon induced by PACAP was not suppressed in an example in which a solvent (VEH: 0.2% DMSO-containing artificial cerebrospinal fluid) was used instead of the compounds.
as §1

[7] = system: spontaneous pain-like behavior induced by PACAP intrathecal administration; assay: Spontaneous pain-like behavior induced by PACAP intrathecal administration; format: in vivo, mouse; conditions: simultaneous i.t. with PACAP (100 pmol), counted for 30 minutes
Experimental: When PACAP (100 pmol/5 L) is intrathecally administered to a mouse in a single dose (single i.t. injection), spontaneous pain-like behavior in which the mouse licks or bites the rear half of the body occurs about 5 minutes after the administration (and continues for several hours) (Ohnou et al. J. Pharmacol. Sci. 130, 194-203, 2016). […] Male ddY mice (6 to 12 weeks old) were used, and the behaviors were taken on video. The number of times of spontaneous pain-like behaviors for 30 minutes after the administration was counted.

[8] = target: T1, mouse PAC receptor-expressing CHO cell (PAC1/CHO cell) (Mus musculus, UniProt P70205); assay: CREB phosphorylation by PACAP stimulus, Western blot, PAC1/CHO cell; format: cell-based
T1 construct: expressed in transfected cells; host or cells: CHO cells
T1 sequence (P70205 21-496): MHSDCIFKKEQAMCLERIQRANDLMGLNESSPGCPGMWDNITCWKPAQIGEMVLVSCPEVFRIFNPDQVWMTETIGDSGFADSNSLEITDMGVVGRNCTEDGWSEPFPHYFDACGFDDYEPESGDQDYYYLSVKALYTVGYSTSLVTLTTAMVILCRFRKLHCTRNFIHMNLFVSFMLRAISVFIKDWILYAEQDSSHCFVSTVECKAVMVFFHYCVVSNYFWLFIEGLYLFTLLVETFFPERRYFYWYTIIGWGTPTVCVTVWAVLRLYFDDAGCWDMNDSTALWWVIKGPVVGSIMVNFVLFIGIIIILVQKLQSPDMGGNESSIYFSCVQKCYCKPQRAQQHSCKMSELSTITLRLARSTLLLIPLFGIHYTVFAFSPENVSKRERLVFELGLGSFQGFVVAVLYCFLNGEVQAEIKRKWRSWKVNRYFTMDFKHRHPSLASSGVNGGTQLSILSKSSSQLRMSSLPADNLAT
Experimental: The effect of each compound on the phosphorylation of CREB (cAMP-responsive element-binding protein) produced by a PACAP stimulus was examined by Western blot analysis using an anti-phosphorylated CREB (pCREB) antibody with a mouse PAC receptor-expressing CHO cell (PAC1/CHO cell) and a mouse VPAC1 receptor-expressing CHO cell (VPAC1/CHO cell).
Specifically, treatment with a compound (PA-8, PA-9, compounds 2j, 20 and 3d) at 10 μM to 10 nM or a solvent therefor (VEH: 0.1% DMSO-containing phosphate buffer solution) was performed for 30 minutes, 1 nM PACAP was then added, and protein was recovered within 30 minutes after a PACAP stimulus.

Compound: C=CCOc1ccc(C2CC(=O)Nc3nc(N)[nH]c(=O)c32)cc1OC (centres unmarked) [PA-8, reference compound]
- suppression of cold allodynia by oxaliplatin [1]: suppressed cold allodynia by oxaliplatin significantly over 4 to 5 hours
- analgesic effect [2]: have analgesic effect
- suppression of the onset of cold allodynia by oxaliplatin [3]: suppressed the onset of cold allodynia by oxaliplatin significantly
- suppression of the onset of mechanical allodynia ([4]; 30 mg/kg i.p. before ligation and once a day for 7 days): suppressed the onset of mechanical allodynia significantly
- mechanical threshold after discontinuation of administration ([4]; 30 mg/kg i.p., discontinued on the seventh day, versus VEH group): maintained the mechanical threshold highly significantly for at least 7 days thereafter
- anti-mechanical allodynia effect [5]: suppressed the onset of mechanical allodynia significantly
- suppression of long-term mechanical allodynia induced by PACAP [6]: strongly suppressed
- suppression of PACAP-induced spontaneous pain-like behavior ([7]; 10 pmol): suppressed the PACAP response significantly
- suppression of PACAP-induced spontaneous pain-like behavior ([7]; 100 pmol): suppressed the PACAP response significantly
- suppression of CREB phosphorylation by PACAP (1 nM) ([8]; PAC1/CHO cell, compound 10 μM to 10 nM, 30 minutes before 1 nM PACAP): suppressed CREB phosphorylation by PACAP (1 nM)
- receptor selectivity (PAC1 versus VPAC1) ([8]; concluded from PAC1/CHO and VPAC1/CHO data): PAC1 receptor selective antagonistic drug
